In patent publication US20100298302A1, “NOVEL PROTEIN KINASE MODULATORS” (priority 2009, published 2010):
Read-outs that look alike come from different tables or passages of the source.

Legend:
recombinant PIM-1 = recombinant PIM-1 (Homo sapiens, UniProt P11309); assay: PIM-1 kinase assay; format: biochemical; settings: for inhibition at 0.5 µM: 500 nM compound, read-out: PIM1: % inh 500 nM
Method: The following procedure was used to assay the PIM-1 kinase activity of compounds of the invention. Other methods for assaying PIM-1 and other PIM kinases, as well as methods to assay for activity against various kinases known in the art.
In a final reaction volume of 50 ul, recombinant PIM-1 (1 ng) was incubated with 12 mM MOPS pH 7.0, 0.4 mM EDTA, glycerol 1%, brij 35 0.002%, 2-mercaptoethanol 0.02%, BSA 0.2 mg/ml, 100 uM KKRNRTLTK, 10 mM MgAcetate, 15 uM ATP, [γ-^33P-ATP] (specific activity approx. 500 cpm/pmol), DMSO 4% and test inhibitor compound at the required concentration. The reaction was initiated by the addition of the Magnesium ATP mixture. After 40 min incubation at 23° C., the reactions were quenched by the addition of 100 ul 0.75% Phosphoric acid, and the labeled peptide collected by filtration through a phosphocellulose filter plate. The plate was washed 4 times with 0.075% phosphoric acid (100 ul per well) and then, after the addition of scintillation fluid (20 ul per well), the counts were measured by a scintillation counter.

recombinant human PIM2 = recombinant human PIM2 (Homo sapiens, UniProt Q9P1W9); assay: PIM-2 kinase assay; format: biochemical
Method: Test compounds dissolved and diluted in DMSO (2 μl) were added to a reaction mixture comprising 10 μl of 5× Reaction Buffer (40 mM MOPS pH 7.0, 5 mM EDTA), 10 μl of recombinant human PIM2 solution (4 ng PIM-2 dissolved in dilution buffer (20 mM MOPS pH 7.0; EDTA 1 mM; 5% Glycerol; 0.01% Brij 35; […]; […] 2-mercaptoethanol; 1 mg/ml BSA)) and 8 ul of water. Reactions were initiated by the addition of 10 ul of ATP Solution ([…] (15 mM MgCl2; 75 uM ATP) 1% ([γ-33P]ATP: Stock 1 mCi/100 μl; 3000 Ci/mmol (Perkin Elmer)) and 10 ul of substrate peptide solution (RSRSSYPAGT, dissolved in water at a concentration of 1 mM), Reactions were maintained for 10 min at 30° C. The reactions were quenched with 100 ul of 0.75% Phosphoric acid, then transferred to and filtered through a Phosphocellulose filter plate (Millipore, MSPH-N6B-50). After washing each well 4 times with 0.75% Phosphoric acid, scintillation fluid (20 uL) was added to each well and the residual radioactivity was measured using a Wallac luminescence counter.

recombinant human CK2 = molecular target: T1, recombinant human CK2 (Homo sapiens, UniProt P68400); assay: cell-free CK2 assay; format: biochemical
T1 construct: purchased Upstate
Method: Modulatory activity of compounds described herein was assessed in vitro in cell-free CK2 assays by the following method.
Test compounds in aqueous solution were added at a volume of 10 microliters, to a reaction mixture comprising 10 microliters Assay Dilution Buffer (ADB; 20 mM MOPS, pH 7.2, 25 mM beta-glycerolphosphate, 5 mM EGTA, 1 mM sodium orthovanadate and 1 mM dithiothreitol), 10 microliters of substrate peptide (RRRDDDSDDD, dissolved in ADB at a concentration of 1 mM), 10 microliters of recombinant human CK2 (25 ng dissolved in ADB; Upstate). Reactions were initiated by the addition of 10 microliters of ATP Solution (90% 75 mM MgCl2, 75 micromolar ATP dissolved in ADB; 10% [γ-^33P]ATP (stock 1 mCi/100 μl; 3000 Ci/mmol (Perkin Elmer) and maintained for 10 minutes at 30 degrees C. The reactions were quenched with 100 microliters of 0.75% phosphoric acid, then transferred to and filtered through a phosphocellulose filter plate (Millipore). After washing each well 5 times with 0.75% phosphoric acid, the plate was dried under vacuum for 5 min and, following the addition of 15 ul of scintilation fluid to each well, the residual radioactivity was measured using a Wallac luminescence counter.

[1] = test system: K-562 human chronic myelogenous leukemia (CML) cells; assay: Alamar Blue cell proliferation assay, K-562; format: cell-based; settings: K562, Table 4
Method: (§1) A representative cell-proliferation assay protocol using Alamar Blue dye (stored at 4° C., use 20 ul per well) is described hereafter.
(§2) a. Split and trypsinize cells.
(§3) b. Count cells using hemocytometer.
(§4) c. Plate 4,000-5,000 cells per well in 100 μl of medium and seed into a 96-well plate according to the following plate layout. Add cell culture medium only to wells B10 to B12. Wells B1 to B9 have cells but no compound added.
(§5) d. Add 100 μl of 2× drug dilution to each well in a concentration shown in the plate layout above. At the same time, add 100 μl of media into the control wells (wells B10 to B12). Total volume is 200 μl/well.
(§6) e. Incubate four (4) days at 37° C., 5% CO2 in a humidified incubator.
(§7) f. Add 20 μl Alamar Blue reagent to each well.
(§8) g. Incubate for four (4) hours at 37° C., 5% CO2 in a humidified incubator.
(§9) h. Record fluorescence at an excitation wavelength of 544 nm and emission wavelength of 590 nm using a microplate reader.
(§10) In the assays, cells are cultured with a test compound for approximately four days, the dye is then added to the cells and fluorescence of […] dye is detected after approximately four hours. Different types of cells can be utilized in the assays (e.g., HCT-116 human colorectal carcinoma cells, PC-3 human prostatic cancer cells, MDA-MB231 human breast cancer cells, K-562 human chronic myelogenous leukemia (CML) cells, MiaPaca human pancreatic carcinoma cells, MV-4 human acute myeloid leukemia cells, and BxPC3 human pancreatic adenocarcinoma cells).

MV-4-11 = assay: Alamar Blue cell proliferation assay, MV-4-11; format: cell-based; settings: Homo sapiens, MV4-11; Table 4
Method: as §1, §2, §3, §4, §5, §6, §7, §8, §9, §10

[2] = 15 μM ATP, read-out: PIM1: IC50 (15 μM ATP)

recombinant PIM-1, sequence (P11309 whole entry): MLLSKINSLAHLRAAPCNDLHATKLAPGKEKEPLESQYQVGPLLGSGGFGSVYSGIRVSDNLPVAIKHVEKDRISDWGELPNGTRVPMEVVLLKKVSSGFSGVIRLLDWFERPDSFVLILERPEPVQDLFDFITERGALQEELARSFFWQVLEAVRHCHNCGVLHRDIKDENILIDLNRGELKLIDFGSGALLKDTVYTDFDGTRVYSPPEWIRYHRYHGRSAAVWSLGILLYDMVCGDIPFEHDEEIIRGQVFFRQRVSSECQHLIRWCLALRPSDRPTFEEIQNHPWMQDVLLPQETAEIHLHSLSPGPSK
recombinant human PIM2, sequence (Q9P1W9 whole entry): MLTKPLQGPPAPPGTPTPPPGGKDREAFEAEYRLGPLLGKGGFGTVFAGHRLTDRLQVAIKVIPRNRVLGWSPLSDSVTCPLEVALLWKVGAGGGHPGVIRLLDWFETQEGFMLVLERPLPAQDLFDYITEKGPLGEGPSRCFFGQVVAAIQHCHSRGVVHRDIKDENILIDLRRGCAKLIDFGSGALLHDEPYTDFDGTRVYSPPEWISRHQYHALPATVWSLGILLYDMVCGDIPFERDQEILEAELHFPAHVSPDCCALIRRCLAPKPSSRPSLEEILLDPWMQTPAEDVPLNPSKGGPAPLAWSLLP
T1 sequence (P68400 whole entry): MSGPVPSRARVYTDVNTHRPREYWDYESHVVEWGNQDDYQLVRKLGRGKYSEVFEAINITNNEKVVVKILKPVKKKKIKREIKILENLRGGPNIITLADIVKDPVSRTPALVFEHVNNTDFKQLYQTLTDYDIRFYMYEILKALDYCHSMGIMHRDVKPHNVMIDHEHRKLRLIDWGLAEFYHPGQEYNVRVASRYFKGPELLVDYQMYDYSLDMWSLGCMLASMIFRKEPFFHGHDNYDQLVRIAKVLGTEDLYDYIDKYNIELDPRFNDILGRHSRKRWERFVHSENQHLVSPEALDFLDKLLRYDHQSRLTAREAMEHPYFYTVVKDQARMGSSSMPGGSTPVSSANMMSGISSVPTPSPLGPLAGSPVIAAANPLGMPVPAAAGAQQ
T1 sequence (P67870 whole entry partner): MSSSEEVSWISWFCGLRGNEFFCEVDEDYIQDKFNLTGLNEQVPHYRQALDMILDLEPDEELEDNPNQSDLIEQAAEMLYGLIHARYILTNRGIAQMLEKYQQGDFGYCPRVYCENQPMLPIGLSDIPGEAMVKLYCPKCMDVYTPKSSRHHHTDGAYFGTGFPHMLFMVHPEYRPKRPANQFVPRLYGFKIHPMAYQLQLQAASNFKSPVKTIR

Compound	inhibition at 0.5 µM (recombinant PIM-1) [%]	IC50 (recombinant human PIM2) [nM]	IC50 (recombinant human CK2) [nM]	also measured
c1ccc(CNc2nc3cc(-c4nnn[nH]4)ccc3n3cccc23)cc1	14.4	–	–	–
c1ccc(Nc2nc3cc(-c4nnc[nH]4)ccc3n3cccc23)cc1	-24.5	–	–	–
c1cc(-c2nnc[nH]2)c2nc(NCC3CC3)c3cccn3c2c1	–	< 1000	< 5000	IC50 (recombinant PIM-1; Table 5, read-out: PIM1 IC50): < 100 nM
N#Cc1ccc2c(c1)nc(Cl)c1cccn12	-35.4	–	–	–
N#Cc1ccc2c(c1)nc(NCc1ccccc1)c1cccn12	-35	–	–	–
O=C(O)c1ccc2c(c1)nc(NCCN1CCOCC1)c1cccn12	18.9	–	–	–
O=C(O)c1ccc2c(c1)nc(NCCN1CCCCC1)c1cccn12	98.8	–	–	IC50 [1]: > 10000 nM; IC50 (MV-4-11): > 10000 nM; IC50 (recombinant PIM-1; [2]): 372 nM
Brc1cccc(Nc2nc3c(-c4nnc[nH]4)cccc3n3cccc23)c1	–	< 100	< 100	IC50 (recombinant PIM-1; Table 5, read-out: PIM1 IC50): < 100 nM
COc1ccc(OC)c(Nc2nc3cc(-c4nnn[nH]4)ccc3n3cccc23)c1	10.9	–	–	–
c1ccc(Nc2nc3cc(-c4nnn[nH]4)ccc3n3cccc23)cc1	75.9	–	–	IC50 [1]: > 10000 nM; IC50 (MV-4-11): > 10000 nM; IC50 (recombinant PIM-1; [2]): 164 nM
O=C(O)c1ccc2c(c1)nc(NCCC(F)(F)F)c1cccn12	46	–	–	–
CCN1CCCC1CNc1nc2cc(C(=O)O)ccc2n2cccc12 (stereo not drawn)	89.7	–	–	IC50 [1]: > 10000 nM; IC50 (MV-4-11): > 10000 nM; IC50 (recombinant PIM-1; [2]): 200 nM
O=C(O)c1ccc2c(c1)nc(Nc1ccccc1)c1cccn12	73.1	–	–	IC50 [1]: > 10000 nM; IC50 (MV-4-11): 483 nM; IC50 (recombinant PIM-1; [2]): 130 nM
Fc1ccc(Nc2nc3c(-c4nnc[nH]4)cccc3n3cccc23)c(Cl)c1	–	< 100	< 1000	IC50 (recombinant PIM-1; Table 5, read-out: PIM1 IC50): < 100 nM
CC(C)(C)OC(=O)OCc1cccc2c1nc(N(C(=O)OC(C)(C)C)c1ccccc1F)c1cccn12	–	> 2500	> 5000	IC50 (recombinant PIM-1; Table 5, read-out: PIM1 IC50): > 2500 nM
OCCNc1nc2cc(-c3nnn[nH]3)ccc2n2cccc12	67.9	–	–	IC50 [1]: > 10000 nM; IC50 (MV-4-11): > 10000 nM; IC50 (recombinant PIM-1; [2]): 273 nM

Second part, led by results:

inhibition at 0.5 µM (recombinant PIM-1) [%]	IC50 (recombinant human PIM2) [nM]	IC50 (recombinant human CK2) [nM]	Compound	also measured
-8.35	–	–	CC(=O)N1CCN(C(=O)c2ccc3c(c2)[nH]c(=O)c2cccn23)CC1	–
-22.5	–	–	NC(=O)c1ccc2c(c1)[nH]c(=O)c1cccn12	–
–	> 2500	> 5000	CCOC(=O)c1cccc2c1nc(N(C(=O)OC(C)(C)C)c1ccccc1F)c1cccn12	IC50 (recombinant PIM-1; Table 5, read-out: PIM1 IC50): > 2500 nM
25.6	–	–	O=C(O)c1ccc2c(c1)[nH]c(=O)c1cccn12	–
–	> 2500	> 5000	CCOC(=O)c1cccc2c1nc(Nc1ccccc1F)c1cccn12	IC50 (recombinant PIM-1; Table 5, read-out: PIM1 IC50): > 2500 nM
–	< 1000	< 1000	NC(=O)c1cccc2c1nc(Nc1ccccc1Cl)c1cccn12	IC50 (recombinant PIM-1; Table 5, read-out: PIM1 IC50): < 100 nM
–	> 2500	< 5000	CCOC(=O)c1cccc2c1nc(Nc1ccccc1F)c1cncn12	–
–	> 2500	< 5000	CCOC(=O)c1cccc2c1[nH]c(=O)c1cncn12	–
-76.2	–	–	CCOC(=O)c1ccc2c(c1)nc(Nc1ccc(F)c(Cl)c1)c1cccn12	–
-0.195	–	–	O=C(c1ccc2c(c1)[nH]c(=O)c1cccn12)N1CCCNCC1	–
